These results are taken from US20050192279A1, “Pyridazinones as antagonists of alpha4 integrins” (priority 2004, published 2005).

Broadly, the IC50 is the point on the concentration scale where inhibition reaches its midpoint.

One test addresses T1, human α4β7 integrin (Homo sapiens, UniProt P13612+P26010).
T1 construct: expressed in transfected cells; host or cells: K562 cells, stably transfected
T1 sequence (P13612 34-1032): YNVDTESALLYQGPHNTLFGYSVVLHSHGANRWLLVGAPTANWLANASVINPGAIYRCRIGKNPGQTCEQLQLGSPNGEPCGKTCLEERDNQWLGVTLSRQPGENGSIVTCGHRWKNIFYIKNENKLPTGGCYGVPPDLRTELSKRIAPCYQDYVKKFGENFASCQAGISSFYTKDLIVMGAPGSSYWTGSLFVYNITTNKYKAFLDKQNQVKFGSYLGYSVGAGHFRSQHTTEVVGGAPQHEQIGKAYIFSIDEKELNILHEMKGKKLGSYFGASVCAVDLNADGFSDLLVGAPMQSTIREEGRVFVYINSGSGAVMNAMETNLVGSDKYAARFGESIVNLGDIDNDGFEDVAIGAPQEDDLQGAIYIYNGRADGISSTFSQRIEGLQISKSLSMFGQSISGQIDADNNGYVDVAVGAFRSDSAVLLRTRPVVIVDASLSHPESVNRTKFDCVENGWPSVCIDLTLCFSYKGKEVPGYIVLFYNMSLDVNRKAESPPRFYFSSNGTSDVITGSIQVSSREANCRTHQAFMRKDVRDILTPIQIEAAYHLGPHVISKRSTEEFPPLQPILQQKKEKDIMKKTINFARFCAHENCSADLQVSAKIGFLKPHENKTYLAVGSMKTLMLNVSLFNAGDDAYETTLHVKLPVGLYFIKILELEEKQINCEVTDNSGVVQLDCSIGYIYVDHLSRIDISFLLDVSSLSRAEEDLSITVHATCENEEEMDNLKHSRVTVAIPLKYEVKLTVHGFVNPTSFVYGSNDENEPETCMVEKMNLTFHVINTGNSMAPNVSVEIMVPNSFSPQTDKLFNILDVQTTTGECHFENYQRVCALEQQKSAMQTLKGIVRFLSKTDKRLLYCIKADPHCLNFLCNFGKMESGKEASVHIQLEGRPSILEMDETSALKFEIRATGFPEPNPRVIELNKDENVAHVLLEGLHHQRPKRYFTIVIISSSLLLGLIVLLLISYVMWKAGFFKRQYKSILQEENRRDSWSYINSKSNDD
T1 sequence (P26010 20-798): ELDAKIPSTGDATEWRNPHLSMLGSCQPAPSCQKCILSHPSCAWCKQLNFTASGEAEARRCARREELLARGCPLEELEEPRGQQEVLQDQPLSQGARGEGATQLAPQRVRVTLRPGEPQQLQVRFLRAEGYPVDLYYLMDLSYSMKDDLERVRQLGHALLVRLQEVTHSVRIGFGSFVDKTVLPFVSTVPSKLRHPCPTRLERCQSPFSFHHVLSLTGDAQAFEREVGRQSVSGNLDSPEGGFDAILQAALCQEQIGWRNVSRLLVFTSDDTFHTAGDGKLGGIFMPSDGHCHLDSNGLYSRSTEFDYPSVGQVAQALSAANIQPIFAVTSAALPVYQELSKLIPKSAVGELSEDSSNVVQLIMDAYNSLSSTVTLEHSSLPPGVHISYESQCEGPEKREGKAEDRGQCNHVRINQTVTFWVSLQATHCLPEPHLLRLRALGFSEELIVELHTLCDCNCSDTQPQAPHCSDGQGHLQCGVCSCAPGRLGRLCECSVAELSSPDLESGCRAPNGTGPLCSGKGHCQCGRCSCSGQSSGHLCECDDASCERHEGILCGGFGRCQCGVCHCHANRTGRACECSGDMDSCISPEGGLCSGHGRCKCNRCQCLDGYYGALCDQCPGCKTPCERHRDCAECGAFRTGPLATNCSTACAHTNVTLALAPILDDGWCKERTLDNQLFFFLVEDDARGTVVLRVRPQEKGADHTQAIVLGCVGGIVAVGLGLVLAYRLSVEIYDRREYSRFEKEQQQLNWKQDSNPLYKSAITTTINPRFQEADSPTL
The test can be described thus: α4β7-K562 Cell Adhesion Assay (α4β7 Mediated Adhesion/MAdCAM-1). To be noted: α4β7-K562 cell adhesion to hMAdCAM-1; read-out: α4β7 IC50. The class given is cell-based. On the procedure: α4β7-K562 Cell Adhesion Assay (α4β7 Mediated Adhesion/MAdCAM-1)
M2 anti-FLAG Antibody Coated 96-well plates (Sigma) were coated for 1 hour at 4° C. with 2-8 μl/well recombinant FLAG-hMAdCAM-1 contained in 100 μL of Dulbecco's PBS, pH 7.4, with 1% BSA and 1 mM Mn ^+2 (PBS-BSA-Mn). Plates were washed once with PBS-BSA-Mn. Buffer was removed and compounds to be tested (50 μL) were added at 2× concentration. Stably transfected K562 cells expressing human α4β7 integrin, (50 μL at 2×10^6/mL) that had been labeled with 100 μg/ml carboxymethyl fluorescein diacetate succinimidyl ester (CFDA-SE; Molecular Probes) for 15 min at 37° C. were added to each well and allowed to adhere for 1 h at room temperature. Plates were washed 4× in PBS-BSA-Mn and then cells were lysed for 2 minutes by addtion of 100 μL of PBS without Ca, Mg supplemented with 0.1 M NaOH.

The target of a further test is T2, α4β1 (Homo sapiens, UniProt P05556+P13612).
T2 construct: Ramos Cell Adhesion Assay (α4β1 Mediated Adhesion/VCAM-1); endogenous in cells; host or cells: Ramos cells
T2 sequence (P05556 21-798, one chain of several): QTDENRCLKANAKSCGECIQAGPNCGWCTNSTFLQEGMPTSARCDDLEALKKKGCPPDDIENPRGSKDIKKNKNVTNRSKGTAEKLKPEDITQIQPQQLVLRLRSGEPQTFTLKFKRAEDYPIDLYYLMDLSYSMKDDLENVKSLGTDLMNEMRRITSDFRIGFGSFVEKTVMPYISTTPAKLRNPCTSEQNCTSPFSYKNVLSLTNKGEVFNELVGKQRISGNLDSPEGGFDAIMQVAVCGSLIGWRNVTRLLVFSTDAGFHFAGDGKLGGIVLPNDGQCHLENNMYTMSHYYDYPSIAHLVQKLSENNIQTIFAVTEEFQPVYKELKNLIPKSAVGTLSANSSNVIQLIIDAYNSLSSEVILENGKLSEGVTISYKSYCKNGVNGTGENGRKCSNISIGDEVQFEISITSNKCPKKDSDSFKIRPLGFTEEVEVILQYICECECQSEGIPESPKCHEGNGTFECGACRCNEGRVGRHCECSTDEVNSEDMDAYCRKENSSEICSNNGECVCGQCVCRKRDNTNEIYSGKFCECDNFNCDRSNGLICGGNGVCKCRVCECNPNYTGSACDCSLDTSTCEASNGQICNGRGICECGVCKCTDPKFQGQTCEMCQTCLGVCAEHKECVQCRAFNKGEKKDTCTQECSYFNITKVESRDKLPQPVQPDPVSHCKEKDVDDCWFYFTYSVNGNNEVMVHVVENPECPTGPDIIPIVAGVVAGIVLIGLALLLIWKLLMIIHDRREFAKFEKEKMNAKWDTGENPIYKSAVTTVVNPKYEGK
As to the kind of experiment: Ramos Cell Adhesion Assay (α4β1 Mediated Adhesion/VCAM-1). The class given is cell-based. The conditions noted are these: Ramos cell adhesion to hVCAM-1; read-out: α4β1 IC50. On the procedure:
Ramos Cell Adhesion Assay (α4β1 Mediated Adhesion/VCAM-1)
Immulon 96 well plates (Dynex) were coated with 100 μL recombinant hVCAM-1 at 4.0 μg/mL in 0.05 M NaCO3 buffer pH 9.0 overnight at 4° C. (R&D Systems). Plates were washed 2 times in PBS with 1% BSA and blocked for 1 h @ room temperature in this buffer. PBS was removed and compounds to be tested (50 μL) were added at 2× concentration. Ramos cells, (50 μL at 2×10^6/mL) labeled with 5 μM Calcein AM (Molecular Probes) for 1 h at 37° C., were added to each well and allowed to adhere for 1 h at room temperature. Plates were washed 4× in PBS+1% BSA and cells were lysed for 15 minutes in 100 μL of 1 M Tris pH 8.0 with 1% SDS.

As for `COc1cnn(C)c(=O)c1-c1ccc(C[C@H](NC(=O)c2ccc[nH]2)C(=O)O)cc1` [Cpd 84], the IC50 is 0.041 µM on human α4β7 integrin and above 5 µM on α4β1.

With `COc1cnn(C(C)(C)C)c(=O)c1-c1ccc(C[C@H](NC(=O)c2c(Cl)cccc2Cl)C(=O)O)cc1` [Cpd 85], the concentration for half-maximal inhibition (IC50) at human α4β7 integrin amounted to 0.042 µM; at α4β1, 0.794 µM.

On to `Cn1ncc(OCC2CC2)c(-c2ccc(C[C@H](NC(=O)c3c(Cl)cccc3Cl)C(=O)O)cc2)c1=O` [Cpd 86, (S)-3-[4-(5-Cyclopropylmethoxy-2-methyl-3-oxo-2,3-dihydro-pyridazin-4-yl)-phenyl]-2-(2,6-dichloro-benzoylamino)-propionic acid], for which the concentration for half-maximal inhibition (IC50) at human α4β7 integrin came out at 0.044 µM; on α4β1, 0.212 µM.

In the case of `COc1cnn(C)c(=O)c1-c1ccc(CC(NC(=O)C(C(C)C)n2cccc2)C(=O)O)cc1` (stereo not shown) [Cpd 87, 3-[4-(5-Methoxy-2-methyl-3-oxo-2,3-dihydro-pyridazin-4-yl)-phenyl]-2-(3-methyl-2-pyrrol-1-yl-butyrylamino)-propionic acid], the half-maximal inhibitory concentration (IC50) at human α4β7 integrin amounted to 0.044 µM; on α4β1, 0.278 µM.

As to `O=C(N[C@@H](Cc1ccc(-c2c(-n3ncc4ccccc43)cnn(CCO)c2=O)cc1)C(=O)O)c1c(Cl)cccc1Cl` [Cpd 88], the figures for the half-maximal inhibitory concentration (IC50) on human α4β7 integrin and on α4β1 were 0.046 µM and 1.04 µM, respectively.

With `COc1cnn(C)c(=O)c1-c1ccc(C[C@H](NC(=O)[C@@H](C(C)C)N(C)C(=O)CCc2ccccc2)C(=O)O)cc1` [Cpd 90], the IC50 on human α4β7 integrin was found to be 0.048 µM; on α4β1, 4.5 µM.

For `COCCOCCOC(=O)[C@H](Cc1ccc(-c2c(OC)cnn(C)c2=O)cc1)NC(=O)c1c(Cl)cccc1Cl` [Cpd 91], the IC50 was determined as 0.049 µM at human α4β7 integrin and 2.38 µM at α4β1.

Regarding `CC(C)(C)C(=O)Cn1ncc(NC2CC2)c(-c2ccc(C[C@H](NC(=O)c3c(Cl)cccc3Cl)C(=O)O)cc2)c1=O` [Cpd 92], the half-inhibitory concentration (IC50) is 0.052 µM on human α4β7 integrin and above 5 µM at α4β1.

For `O=C(N[C@@H](Cc1ccc(-c2c(Cl)cnn(CC3CC3)c2=O)cc1)C(=O)O)c1c(Cl)cccc1Cl` [Cpd 93, (S)-3-[4-(5-Chloro-2-cyclopropylmethyl-3-oxo-2,3-dihydro-pyridazin-4-yl)-phenyl]-2-(2,6-dichloro-benzoylamino)-propionic acid], the IC50 is 0.052 µM at human α4β7 integrin and above 5 µM on α4β1.

Regarding `O=C(N[C@@H](Cc1ccc(-c2c(-n3cc(Br)cn3)cnn(CCO)c2=O)cc1)C(=O)O)c1c(Cl)cccc1Cl` [Cpd 94], the concentration for half-maximal inhibition (IC50) on human α4β7 integrin is 0.053 µM; on α4β1 it was 1.32 µM.

On to `Cn1ncc(O)c(-c2ccc(C[C@H](NC(=O)c3c(Cl)cccc3Cl)C(=O)O)cc2)c1=O` [Cpd 95, (S)-2-(2,6-Dichloro-benzoylamino)-3-[4-(5-hydroxy-2-methyl-3-oxo-2,3-dihydro-pyridazin-4-yl)-phenyl]-propionic acid], for which the figures for the IC50 on human α4β7 integrin and at α4β1 were 0.0535 µM and 0.48 µM, respectively.

As for `COc1cnn(C)c(=O)c1-c1ccc(C[C@H](NC(=O)CN(C)C(=O)OCc2ccccc2)C(=O)O)cc1` [Cpd 96], the half-inhibitory concentration (IC50) came to 0.056 µM on human α4β7 integrin and 1.79 µM at α4β1.

In the case of `COc1cnn(C)c(=O)c1-c1ccc(CC(NC(=O)c2c(Cl)cccc2Cl)C(=O)OCCO)cc1` (stereo not shown) [Cpd 97, 2-(2,6-Dichloro-benzoylamino)-3-[4-(5-methoxy-2-methyl-3-oxo-2,3-dihydro-pyridazin-4-yl)-phenyl]-propionic acid 2-hydroxy-ethyl ester], the IC50 at human α4β7 integrin amounted to 0.058 µM; on α4β1 it was 3.24 µM.

With `COc1cnn(C)c(=O)c1-c1ccc(C[C@H](NC(=O)C2(NC3CCCCC3)CCOCC2)C(=O)O)cc1` [Cpd 98], the figures for the 50% inhibitory concentration (IC50) at human α4β7 integrin and on α4β1 were 0.248 µM and 3.84 µM, respectively.

`COc1cnn(C)c(=O)c1-c1ccc(C[C@H](NC(=O)C23CCC(CC2)CN3)C(=O)O)cc1` [Cpd 99]: the concentration for half-maximal inhibition (IC50) worked out at 0.06 µM at human α4β7 integrin and 0.265 µM on α4β1.

On to `COc1cnn(C)c(=O)c1-c1ccc(C[C@H](NC(=O)[C@@H]2C3CCC(CC3)N2C(=O)CCC(C)C)C(=O)O)cc1` [Cpd 100], for which the figures for the IC50 on human α4β7 integrin and on α4β1 were 0.06 µM and 0.272 µM, respectively.

As to `COc1cnn(C)c(=O)c1-c1ccc(C[C@H](NC(=O)[C@@H]2C3CCC(CC3)N2C(=O)OCc2ccccc2)C(=O)O)cc1` [Cpd 103], the results for the half-maximal inhibitory concentration (IC50) at human α4β7 integrin and at α4β1 were 0.067 µM and 0.629 µM, respectively.

For `COc1cnn(C)c(=O)c1-c1ccc(CC(NC(=O)C(NC(=O)Cc2ccsc2)C(C)C)C(=O)O)cc1` (stereo not shown) [Cpd 107, 3-[4-(5-Methoxy-2-methyl-3-oxo-2,3-dihydro-pyridazin-4-yl)-phenyl]-2-[3-methyl-2-(2-thiophen-3-yl-acetylamino)-butyrylamino]-propionic acid], the IC50 on human α4β7 integrin is 0.071 µM; at α4β1, 0.306 µM.

Turning to `COc1cnn(C)c(=O)c1-c1ccc(C[C@H](NC(=O)[C@@H]2C3CCC(CC3)N2S(=O)(=O)c2ccccc2)C(=O)O)cc1` [Cpd 108], the IC50 was found to be 0.072 µM at human α4β7 integrin and 0.0027 µM on α4β1.

As to `CC(C)COC(=O)N[C@@H](Cc1ccc(-c2c(OCC(C)C)cnn(C)c2=O)cc1)C(=O)O` [Cpd 111], the IC50 was 0.082 µM on human α4β7 integrin and above 5 µM at α4β1.

Regarding `Cn1ncc(OC(F)F)c(-c2ccc(C[C@H](NC(=O)c3c(Cl)cccc3Cl)C(=O)O)cc2)c1=O` [Cpd 112, (S)-2-(2,6-Dichloro-benzoylamino)-3-[4-(5-difluoromethoxy-2-methyl-3-oxo-2,3-dihydro-pyridazin-4-yl)-phenyl]-propionic acid], the values for the IC50 on human α4β7 integrin and on α4β1 were 0.085 µM and 0.289 µM, respectively.

For `COc1cnn(C)c(=O)c1-c1ccc(C[C@H](NC(=O)[C@@H]2C3CCC(CC3)N2C(=O)Cc2ccsc2)C(=O)O)cc1` [Cpd 113], the results for the IC50 at human α4β7 integrin and on α4β1 were 0.088 µM and 0.044 µM, respectively.

With `COc1cnn(C)c(=O)c1-c1ccc(C[C@H]2C(=O)OCN2C(=O)c2c(Cl)cccc2Cl)cc1` [Cpd 114, (S)-4-{4-[3-(2,6-Dichloro-benzoyl)-5-oxo-oxazolidin-4-ylmethyl]-phenyl}-5-methoxy-2-methyl-2H-pyridazin-3-one], the IC50 on human α4β7 integrin is 0.093 µM; at α4β1, above 5 µM.
